Data: PMC5483892 (Journal of Medicinal Chemistry, 2017)

Target: ATX (full length human β form with a C-terminal 6-His tag) (Homo sapiens, UniProt Q13822)
Format: biochemical
Details: for LE (ligand efficiency): LE = −RTpKi/nb heavy atoms; for LE (ligand efficiency) / LLE (lipophilic ligand efficiency): from concentration response pIC50; for LLE (lipophilic ligand efficiency): LLE = pIC50 – cLogP; for affinities within fold of each other: BAL hits 16, 19 and 22 compared with each other

SMILES	LE (ligand efficiency)	LLE (lipophilic ligand efficiency)	affinities within fold of each other [fold]	more potent than 18 (relative to 18) [fold]	increase in potency (relative to phenyl boronic acid 14) [fold]
Oc1ccc2nonc2c1 [Compound 4]	0.50	3.5			
COCCc1ccc(OCc2cccc(B(O)O)c2)cc1 [Compound 19]	0.41	3.3	≤ 3	25	
N#Cc1ccc(B(O)O)cc1 [Compound 21]	0.66				
COc1cc(COc2ccc(B(O)O)cc2Cl)cc(OC)c1 [Compound 22]	0.40	3.4	≤ 3		
COc1cccc(B(O)O)c1 [Compound 17]	0.58	2.9			
Oc1ccc(-n2ccnc2)cc1 [Compound 10]	0.37	2.5			
OB(O)c1ccccc1OCc1cccc(Cl)c1 [Compound 16]	0.45	3.5	≤ 3		10
OB(O)c1cccc(O)c1 [Compound 5]	0.68	3.7			
NCc1cccc(O)c1 [Compound 6]	0.44	2.8			
OB(O)c1ccccc1 [Compound 14, phenyl boronic acid]	0.76	3.7			
OCc1cccc(B(O)O)c1 [Compound 18]		3.6			
OB(O)c1ccc2cc[nH]c2c1 [Compound 1]	0.65	4.4			
CS(=O)(=O)c1ccc(O)cc1 [Compound 12]	0.40	2.9			
OB(O)c1ccc(O)cc1 [Compound 9]	0.68	3.7			
COc1ccc(B(O)O)cc1 [Compound 13]	0.66	3.6			
O=C(O)c1ccc2cc[nH]c2c1 [Compound 2]	0.35	2.8			
COc1ccccc1B(O)O [Compound 15]	0.67	3.8			
CS(=O)(=O)c1ccc(B(O)O)cc1 [Compound 11]	0.55	4.9			
OB(O)c1ccc2nonc2c1 [Compound 3]	0.57	3.8			
Nc1cccc(-c2nnc[nH]2)c1 [Compound 8]	0.41	3.4			
N#Cc1cccc(B(O)O)c1 [Compound 26]	0.58				
